Laboratory results: US10501487B2, “Antibacterial bismuth complexes” (priority 2015, dated 2019)
Like-named read-outs stand apart in the source and are kept apart here.

How the values were obtained:
[1] = tested on: cos 7 (monkey kidney-derived) cells; assay: MTT-based toxicology assay; type: cell-based; details: 1 mg/mL, two hours; preliminary results
Experimental: Toxicity testing was performed on the example complexes 1-5 as well as the corresponding ligands against cos 7 eukaryotic cells. Cytotoxicity was assessed using the MTT-based toxicology assay (Sigma-Aldrich; TOX1 assay kit) according to the manufacturer's instructions. Compounds were added to cultured cos 7 (monkey kidney-derived) cells at 1 mg/mL and 0.5 mg/mL for two hours. The MTT reagent was then added and cells were incubated at 37° C. for a further two hours. Following incubation, MTT solubilisation solution was added and mixed. Absorbance results were measured on a Tecan plate reader at 690 nm (background reading) and again at 570 nm. Results were calculated after subtracting the background reading (690 nm) from the values obtained at 570 nm. Cell viability was expressed as a normalised percentage against the blank (medium-only) negative controls. All assays were performed in duplicate.

E. coli = assay: Test 1: colony count after incubation in Lysogeny broth culture; type: cell-based; details: for Colony E. coli: Table 1a, 10 mg in 5 mL culture, 2 hours at 37° C., Blank 8.00E+08 (examples), 6.40E+08 (second Blank); for inhibition of growth at 2000 µg/mL: Escherichia coli, 2 h, read-out: Reduction in bacterial growth (%) E. coli
Experimental: (§1) Bacteria were grown in […] Lysogeny broth (LB), shaking at 37° C. to an optical density (OD) of 0.6 (2-3 hr). The culture was divided in […]. One of the cultures was used as a control, containing no organobismuth(III) phosphinate complex. To the other culture, 10 mg of the appropriate organobismuth (III) phosphinate complex was added. The control and organobismuth(III) phosphinate complex-containing cultures were then incubated for 2 hours at 37° C. with shaking. An aliquot was removed from each culture, serially diluted and 50 uL spread on lysogeny broth plates (˜1 in 10^7 gives countable colony numbers for the wild type controls). The plates were incubated overnight at 37° C. The colonies were counted and multiplied by the dilution factor to determine the colony-forming unit (cfu)/ml of the original culture.
(§2) The experiments were also repeated in a lower concentration (0.5 mg/mL) in accordance with the procedure above, which is also shown in Table 2.

S. aureus = assay: as above; type: cell-based; details: for Colony S. aureus: Table 1a, 10 mg in 5 mL culture, 2 hours at 37° C., Blank 8.00E+08 (examples), 4.00E+08 (second Blank); for inhibition of growth at 2000 µg/mL: Staphylococcus aureus, 2 h, read-out: Reduction in bacterial growth (%) S. aureus
Experimental: as §1, §2

VRE = assay: Test 3: complex incorporated in agar, colony growth; type: cell-based, Enterococcus; details: 1 mg in agar (20 mL)
Experimental: (§3) The organobismuth (III) phosphinate complex (10 mg or 1 mg) was spread at the bottom of a petri dish. 20 mL of agar was poured on top, before allowing to dry and being stored in a cool dry place. MRSA and VRE were grown in 40 mL BHI with shaking at 37° C. to an OD (optical density) of 0.6 (2-3 hr). The bacteria were then grown for a further 2 hours at 37° C. The bacteria were then plated (at no dilution, 10^3-fold dilution, and 10^4-fold dilution on agar plates containing organobismuth (III) phosphinate and control plates containing no organobismuth (III) phosphinate. The plates were incubated overnight at 37° C. The colonies were counted and multiplied by the dilution factor to determine the colony-forming unit (cfu)/ml of the original culture.

MRSA = assay: as above; type: cell-based, Staphylococcus aureus; details: 1 mg in agar (20 mL)
Experimental: as §3

[2] = 0.5 mg/mL, normalised against the Blank sample
[3] = 2 mg/mL, normalised against the Blank sample

O=P([O][Bi]([O]P(=O)(c1ccccc1)c1ccccc1)[c]1ccccc1)(c1ccccc1)c1ccccc1 [Example 1, Phenyl bismuth bis(diphenylphosphinate)]
toxicity (in words) [1]: relatively non-toxic

COc1ccc(P(=O)([O][Bi]([O]P(=O)(c2ccc(OC)cc2)c2ccc(OC)cc2)[c]2ccccc2)c2ccc(OC)cc2)cc1 [Example 2, Phenyl bismuth bis(bis(4-methoxyphenyl)phosphinate)]
Reduction in bacterial growth (%) E. coli (E. coli; [2]): 100.00% | Reduction in bacterial growth (%) E. coli (E. coli; [3]): 100.00% | Colony E. coli (E. coli): 1.50E+01 cfu/ml | Reduction in bacterial growth (%) S. aureus (S. aureus; [2]): 40.00% | Reduction in bacterial growth (%) S. aureus (S. aureus; [3]): 100.00% | Colony S. aureus (S. aureus): 0.00E+00 cfu/ml

O=[N+]([O-])c1cccc(P(=O)([O][Bi]([O]P(=O)(c2cccc([N+](=O)[O-])c2)c2cccc([N+](=O)[O-])c2)[c]2ccccc2)c2cccc([N+](=O)[O-])c2)c1 [Example 3, Phenyl bismuth bis(bis(3-nitrophenyl)phosphinate)]
bacterial growth on treated agar (in words) (VRE): no bacterial growth was observed | bacterial growth on treated agar (in words) (MRSA): no bacterial growth was observed | Reduction in bacterial growth (%) E. coli (E. coli; [2]): 97.00% | Reduction in bacterial growth (%) E. coli (E. coli; [3]): 100.00% | Colony E. coli (E. coli): 0.00E+00 cfu/ml | Reduction in bacterial growth (%) S. aureus (S. aureus; [2]): 90.00% | Reduction in bacterial growth (%) S. aureus (S. aureus; [3]): 100.00% | Colony S. aureus (S. aureus): 0.00E+00 cfu/ml

O=[PH]([O][Bi]([O][PH](=O)c1ccccc1)[c]1ccccc1)c1ccccc1 (stereo not drawn) [Example 4, Phenyl bismuth bis(phenylphosphinate)]
toxicity (in words) [1]: relatively non-toxic

CP(C)(=O)[O][Bi]([O]P(C)(C)=O)[c]1ccccc1 [Example 5, Phenyl Bismuth bis(dimethylphosphinate)]
toxicity (in words) [1]: relatively non-toxic

O=[N+]([O-])c1cccc(P(=O)(O)c2cccc([N+](=O)[O-])c2)c1 [bis(3-nitrophenyl)phosphinic acid, Bis(3-nitrophenyl)phosphinic acid]
inhibition of growth at 2000 µg/mL (E. coli; [3]): 90% | Colony E. coli (E. coli): 8.00E+07 cfu/ml | inhibition of growth at 2000 µg/mL (S. aureus; [3]): 0% | Colony S. aureus (S. aureus): 8.00E+08 cfu/ml

COc1ccc(P(=O)(O)c2ccc(OC)cc2)cc1 [bis(4-methoxyphenyl)phosphinic acid]
inhibition of growth at 2000 µg/mL (E. coli; [3]): 90% | Colony E. coli (E. coli): 8.00E+07 cfu/ml | inhibition of growth at 2000 µg/mL (S. aureus; [3]): 25% | Colony S. aureus (S. aureus): 6.00E+08 cfu/ml

CP(C)(=O)O [dimethyl phosphinic acid]
inhibition of growth at 2000 µg/mL (E. coli): 78.8% | Colony E. coli (E. coli): 1.70E+08 cfu/ml | inhibition of growth at 2000 µg/mL (S. aureus): 25% | Colony S. aureus (S. aureus): 6.00E+08 cfu/ml

O=P(O)(c1ccccc1)c1ccccc1 [diphenylphosphinic acid]
inhibition of growth at 2000 µg/mL (E. coli; [3]): 70% | Colony E. coli (E. coli): 2.40E+08 cfu/ml | inhibition of growth at 2000 µg/mL (S. aureus; [3]): 0% | Colony S. aureus (S. aureus): 8.00E+08 cfu/ml

O=[PH](O)c1ccccc1 [phenylphosphinic acid]
inhibition of growth at 2000 µg/mL (E. coli): 60% | Colony E. coli (E. coli): 3.20E+08 cfu/ml | inhibition of growth at 2000 µg/mL (S. aureus): 0% | Colony S. aureus (S. aureus): 8.00E+08 cfu/ml

c1cc[c]([Bi]([c]2ccccc2)[c]2ccccc2)cc1 [triphenylbismuth]
bacterial growth on treated agar (in words) (VRE): grew to a comparable number as the blank | bacterial growth on treated agar (in words) (MRSA): grew to a comparable number as the blank
